We go through 14 compounds from article PMC5460289, “Identification of New Shikonin Derivatives as Antitumor Agents Targeting STAT3 SH2 Domain” (Scientific Reports, 2017).

Molecules are shown by their SMILES.

In general, CC50 refers to the concentration that lowers cell viability or growth by half. A high value points to lower toxicity to the cells. One may read the IC50 as the concentration at which inhibition is half-maximal.

A short description of series [1]: MTT anti-proliferation assay, non-tumorigenic cells. Type of series: cell-based. Particulars: human, non-tumorigenic MCF-10A cells, 24 h treatment. The protocol:
(§1) Initial experiments were performed for evaluation of growth inhibition by the new compounds against six human breast cancer cell lines, including MCF-7 (ER+/PR+, HER-2-), BT474 (ER+/PR+, HER-2+), SKBR-3 (ER-/PR-/HER-2+), MDA-MB-436 (ER-/PR-/HER-2-), MDA-MB-231 (ER-/PR-/HER-2-), MDA-MB-468 (ER-/PR-/HER-2-) and non-tumorigenic MCF-10A cells. After 24 h treatment by the obtained compounds, the inhibition was assessed and the IC50 was summarized. […] Subsequently, the inhibition of STAT3 activation by PMM-172 and Stattic was evaluated using a dual-luciferase assay.
(§2) The anti-proliferative activities of the prepared compounds against MCF-7 (ER+/PR+, HER-2-), BT474 (ER+/PR+, HER-2+), SKBR-3 (ER-/PR-/HER-2+), MDA-MB-436 (ER-/PR-/HER-2-), MDA-MB-231 (ER-/PR-/HER-2-), MDA-MB-468 (ER-/PR-/HER-2-) and non-tumorigenic MCF-10A cell lines were evaluated using a standard (MTT)-based colorimetric assay with some modification. Cell lines were grown to log phase in DMEM supplemented with 10% fetal bovine serum. Cell suspensions were prepared and 100 μL/well dispensed into 96-well plates giving 10^4 cells/well. The subsequent incubation was permitted at 37 °C, 5% CO2 atmosphere for 24 h to allow the cells to reattach. Subsequently, cells were treated with the target compounds at increasing concentrations in the presence of 10% FBS for 24 h. Then, cell viability was assessed by the conventional 3-(4, 5-dimethylthiazol-2-yl)-2, 5-diphenyltetrazolium bromide (MTT) reduction assay and carried out strictly according to the manufacturer instructions. The absorbance (OD570) was read on an ELISA reader (Tecan, Austria). In all experiments, three replicate wells were used for each drug concentration. Each assay was carried out for at least three times.
For orientation: Tetrazolium dyes change colour on reduction, which living cells bring about.

Series [2] concerns MCF-7. In words: MTT anti-proliferation assay. Type of series: cell-based, human. The conditions noted are these: Homo sapiens, MCF7, 24 h treatment. The protocol:
as §1, §2

Series [3] relates to MDA-MB-436. In words: MTT anti-proliferation assay. Type of series: cell-based, human. Particulars: Homo sapiens, MDA-MB-436, 24 h treatment. Here is the method: as §1, §2
Series [4] has as its system SKBR-3. The series can be described thus: MTT anti-proliferation assay. Type of series: cell-based, human. The conditions noted are these: Homo sapiens, SK-BR-3, 24 h treatment. The protocol: as §1, §2
For series [5], the system named is BT-474. The series can be described thus: MTT anti-proliferation assay. Type of series: cell-based, human. Particulars: Homo sapiens, BT-474, 24 h treatment. The protocol: as §1, §2
The test system of series [6] is MDA-MB-231. The series can be described thus: MTT anti-proliferation assay. Type of series: cell-based, human. Here is the method: as §1, §2
For series [7], the system named is MDA-MB-468. In words: MTT anti-proliferation assay. The conditions noted are these: Homo sapiens, MDA-MB-468, 24 h treatment. Type of series: cell-based, human. The protocol:
as §1, §2

The mark [8] stands for this setting: Homo sapiens, MDA-MB-231, 24 h treatment.

`CC(C)=CC[C@@H](OC(=O)CSc1nnc(-c2ccccc2)o1)C1=CC(=O)c2c(O)ccc(O)c2C1=O` [PMM-158, (R)-1-(5,8-dihydroxy-1,4-dioxo-1,4-dihydronaphthalen-2-yl)-4-methylpent-3-en-1-yl 2-((5-phenyl-1,3,4-oxadiazol-2-yl)thio)acetate] yielded a half-maximal cytotoxic concentration (CC50) at 24 h in series [1] of 92.5 ± 0.27 µM. Besides, the IC50 in series [2] was 12.1 ± 0.42 µM; in series [3], 10.1 ± 0.92 µM; in series [4], 11.5 ± 0.74 µM; in series [5], 15.6 ± 1.03 µM; in series [6] (setting [8]) it was 9.17 ± 0.99 µM; in series [7], 10.6 ± 0.65 µM.

In the case of `CC(C)=CC[C@@H](OC(=O)CSc1nnc(-c2ccc(F)cc2)o1)C1=CC(=O)c2c(O)ccc(O)c2C1=O` [PMM-159, (R)-1-(5,8-dihydroxy-1,4-dioxo-1,4-dihydronaphthalen-2-yl)-4-methylpent-3-en-1-yl 2-((5-(4-fluorophenyl)-1,3,4-oxadiazol-2-yl)thio)acetate], the half-maximal cytotoxic concentration (CC50) at 24 h in series [1] was 89.5 ± 0.99 µM. The IC50 in series [2] was 9.22 ± 0.13 µM; in series [3], 8.49 ± 0.78 µM; in series [4], 8.95 ± 0.69 µM; in series [5], 10.8 ± 0.94 µM; in series [6] (setting [8]), 7.24 ± 0.82 µM; in series [7], 8.23 ± 1.27 µM.

In the case of `CC(C)=CC[C@@H](OC(=O)CSc1nnc(-c2cccc(F)c2)o1)C1=CC(=O)c2c(O)ccc(O)c2C1=O` [PMM-160, (R)-1-(5,8-dihydroxy-1,4-dioxo-1,4-dihydronaphthalen-2-yl)-4-methylpent-3-en-1-yl 2-((5-(3-fluorophenyl)-1,3,4-oxadiazol-2-yl)thio)acetate], in series [1], it took 68.3 ± 0.27 µM to reach half-maximal cytotoxicity (CC50 at 24 h). In addition, the IC50 in series [2] was found to be 15.3 ± 0.52 µM; in series [3], 11.8 ± 0.86 µM; in series [4] it was 10.5 ± 0.88 µM; in series [5], 18.3 ± 1.24 µM; in series [6] (setting [8]) it was 9.66 ± 1.21 µM; in series [7], 12.4 ± 0.52 µM.

For the compound `CC(C)=CC[C@@H](OC(=O)CSc1nnc(-c2ccccc2F)o1)C1=CC(=O)c2c(O)ccc(O)c2C1=O` [PMM-161, (R)-1-(5,8-dihydroxy-1,4-dioxo-1,4-dihydronaphthalen-2-yl)-4-methylpent-3-en-1-yl 2-((5-(2-fluorophenyl)-1,3,4-oxadiazol-2-yl)thio)acetate], the CC50 at 24 h in series [1] is 84.5 ± 0.74 µM. Moreover, the 50% inhibitory concentration (IC50) is 9.81 ± 0.49 µM in series [2]; 9.55 ± 0.83 µM in series [3]; 9.29 ± 0.66 µM in series [4]; 11.1 ± 1.12 µM in series [5]; 8.58 ± 0.53 µM in series [6] (setting [8]); 8.97 ± 1.05 µM in series [7].

In turn, `CC(C)=CC[C@@H](OC(=O)CSc1nnc(-c2ccc(Cl)cc2)o1)C1=CC(=O)c2c(O)ccc(O)c2C1=O` [PMM-162, (R)-1-(5,8-dihydroxy-1,4-dioxo-1,4-dihydronaphthalen-2-yl)-4-methylpent-3-en-1-yl 2-((5-(4-chlorophenyl)-1,3,4-oxadiazol-2-yl)thio)acetate] had a 50% cytotoxic concentration (CC50) at 24 h in series [1] of 91.9 ± 1.21 µM. Moreover, the half-inhibitory concentration (IC50) in series [2] was determined as 9.01 ± 0.92 µM; in series [3] it was 7.28 ± 0.77 µM; in series [4], 8.03 ± 0.83 µM; in series [5] it was 9.54 ± 0.91 µM; in series [6] (setting [8]), 6.14 ± 1.05 µM; in series [7], 6.85 ± 0.92 µM.

`CC(C)=CC[C@@H](OC(=O)CSc1nnc(-c2cccc(Cl)c2)o1)C1=CC(=O)c2c(O)ccc(O)c2C1=O` [PMM-163, (R)-1-(5,8-dihydroxy-1,4-dioxo-1,4-dihydronaphthalen-2-yl)-4-methylpent-3-en-1-yl 2-((5-(3-chlorophenyl)-1,3,4-oxadiazol-2-yl)thio)acetate] returned a CC50 at 24 h in series [1] of 86.2 ± 0.33 µM. Further, the IC50 in series [2] is 8.69 ± 0.83 µM; in series [3] it was 7.09 ± 0.63 µM; in series [4] it was 7.56 ± 0.72 µM; in series [5], 9.27 ± 0.86 µM; in series [6] (setting [8]), 6.04 ± 0.59 µM; in series [7], 7.83 ± 0.55 µM.

Consider `CC(C)=CC[C@@H](OC(=O)CSc1nnc(-c2ccccc2Cl)o1)C1=CC(=O)c2c(O)ccc(O)c2C1=O` [PMM-164, (R)-1-(5,8-dihydroxy-1,4-dioxo-1,4-dihydronaphthalen-2-yl)-4-methylpent-3-en-1-yl 2-((5-(2-chlorophenyl)-1,3,4-oxadiazol-2-yl)thio)acetate], for which the CC50 at 24 h in series [1] was 74.6 ± 0.55 µM. Besides, the IC50 stood at 5.71 ± 0.52 µM in series [2]; 4.41 ± 0.55 µM in series [3]; 4.49 ± 0.58 µM in series [4]; 7.09 ± 0.65 µM in series [5]; 3.76 ± 1.02 µM in series [6] (setting [8]); 3.94 ± 0.73 µM in series [7].

With `CC(C)=CC[C@@H](OC(=O)CSc1nnc(-c2ccc(Br)cc2)o1)C1=CC(=O)c2c(O)ccc(O)c2C1=O` [PMM-165, (R)-1-(5,8-dihydroxy-1,4-dioxo-1,4-dihydronaphthalen-2-yl)-4-methylpent-3-en-1-yl 2-((5-(4-bromophenyl)-1,3,4-oxadiazol-2-yl)thio)acetate], the CC50 at 24 h in series [1] is 83.7 ± 1.28 µM. Further, the half-maximal inhibitory concentration (IC50) in series [2] amounted to 9.38 ± 0.66 µM; in series [3] it was 5.97 ± 0.67 µM; in series [4], 6.23 ± 0.73 µM; in series [5], 9.22 ± 0.98 µM; in series [6] (setting [8]), 5.47 ± 1.01 µM; in series [7], 6.58 ± 0.15 µM.

In turn, `CC(C)=CC[C@@H](OC(=O)CSc1nnc(-c2cccc(Br)c2)o1)C1=CC(=O)c2c(O)ccc(O)c2C1=O` [PMM-166, (R)-1-(5,8-dihydroxy-1,4-dioxo-1,4-dihydronaphthalen-2-yl)-4-methylpent-3-en-1-yl 2-((5-(3-bromophenyl)-1,3,4-oxadiazol-2-yl)thio)acetate] came in with a CC50 at 24 h in series [1] of 69.9 ± 0.58 µM. Besides, the IC50 in series [2] was 6.41 ± 0.75 µM; in series [3], 4.66 ± 0.59 µM; in series [4] it was 4.87 ± 0.58 µM; in series [5], 6.91 ± 0.73 µM; in series [6] (setting [8]) it was 3.64 ± 0.91 µM; in series [7], 4.07 ± 0.66 µM.

With `CC(C)=CC[C@@H](OC(=O)CSc1nnc(-c2ccccc2Br)o1)C1=CC(=O)c2c(O)ccc(O)c2C1=O` [PMM-167, (R)-1-(5,8-dihydroxy-1,4-dioxo-1,4-dihydronaphthalen-2-yl)-4-methylpent-3-en-1-yl 2-((5-(2-bromophenyl)-1,3,4-oxadiazol-2-yl)thio)acetate], in series [1], the half-maximal cytotoxic concentration (CC50) at 24 h came out at 72.5 ± 1.53 µM. In addition, the IC50 is 15.3 ± 0.61 µM in series [2]; 10.6 ± 0.82 µM in series [3]; 9.76 ± 0.95 µM in series [4]; 13.7 ± 0.92 µM in series [5]; 9.01 ± 0.56 µM in series [6] (setting [8]); 12.2 ± 0.42 µM in series [7].

Turning to `COc1cccc(-c2nnc(SCC(=O)O[C@H](CC=C(C)C)C3=CC(=O)c4c(O)ccc(O)c4C3=O)o2)c1` [PMM-169, (R)-1-(5,8-dihydroxy-1,4-dioxo-1,4-dihydronaphthalen-2-yl)-4-methylpent-3-en-1-yl 2-((5-(3-methoxyphenyl)-1,3,4-oxadiazol-2-yl)thio)acetate], in series [1], the midpoint of cytotoxicity, the CC50 at 24 h, lay at 99.5 ± 0.49 µM. For the same compound, the IC50 in series [2] came out at 8.12 ± 0.98 µM; in series [3] it was 7.36 ± 0.87 µM; in series [4], 6.95 ± 0.82 µM; in series [5], 8.36 ± 0.97 µM; in series [6] (setting [8]), 5.33 ± 0.77 µM; in series [7] it was 7.22 ± 1.11 µM.

For the compound `COc1ccccc1-c1nnc(SCC(=O)O[C@H](CC=C(C)C)C2=CC(=O)c3c(O)ccc(O)c3C2=O)o1` [PMM-170, (R)-1-(5,8-dihydroxy-1,4-dioxo-1,4-dihydronaphthalen-2-yl)-4-methylpent-3-en-1-yl 2-((5-(2-methoxyphenyl)-1,3,4-oxadiazol-2-yl)thio)acetate], it took 94.6 ± 0.83 µM to reach half-maximal cytotoxicity in series [1] (CC50 at 24 h). For the same compound, the IC50 was 9.73 ± 1.03 µM in series [2]; 6.88 ± 0.73 µM in series [3]; 8.27 ± 0.69 µM in series [4]; 12.7 ± 1.06 µM in series [5]; 4.31 ± 0.65 µM in series [6] (setting [8]); 8.44 ± 0.78 µM in series [7].

Take `CC(C)=CC[C@@H](OC(=O)CSc1nnc(-c2ccc(C)cc2)o1)C1=CC(=O)c2c(O)ccc(O)c2C1=O` [PMM-173, (R)-1-(5,8-dihydroxy-1,4-dioxo-1,4-dihydronaphthalen-2-yl)-4-methylpent-3-en-1-yl 2-((5-(p-tolyl)-1,3,4-oxadiazol-2-yl)thio)acetate]: the half-maximal cytotoxic concentration (CC50) at 24 h in series [1] was determined as 88.9 ± 0.34 µM. In addition, the IC50 came to 5.58 ± 0.83 µM in series [2]; 4.06 ± 0.53 µM in series [3]; 3.59 ± 0.49 µM in series [4]; 6.03 ± 0.71 µM in series [5]; 2.59 ± 0.19 µM in series [6] (setting [8]); 3.76 ± 0.88 µM in series [7].

The compound `CC(C)=CC[C@@H](O)C1=CC(=O)c2c(O)ccc(O)c2C1=O` [Shikonin, shikonin] showed a CC50 at 24 h in series [1] of 23.5 ± 1.01 µM. For the same compound, the IC50 amounted to 4.57 ± 0.69 µM in series [2]; 3.28 ± 0.41 µM in series [3]; 3.75 ± 0.52 µM in series [4]; 5.74 ± 0.66 µM in series [5]; 2.88 ± 0.25 µM in series [6] (24 h treatment); 3.28 ± 0.41 µM in series [6] (Homo sapiens, MDA-MB-231, 24 h, 24 h treatment). In series [7], this compound yielded a 50% inhibitory concentration (IC50) of 3.61 ± 0.34 µM.
